For the test, the target named is T1, FXR (Homo sapiens, UniProt Q96RI1).
T1 construct: expressed in transfected cells; host or cells: CV-1 cells
T1 sequence (Q96RI1 1-486): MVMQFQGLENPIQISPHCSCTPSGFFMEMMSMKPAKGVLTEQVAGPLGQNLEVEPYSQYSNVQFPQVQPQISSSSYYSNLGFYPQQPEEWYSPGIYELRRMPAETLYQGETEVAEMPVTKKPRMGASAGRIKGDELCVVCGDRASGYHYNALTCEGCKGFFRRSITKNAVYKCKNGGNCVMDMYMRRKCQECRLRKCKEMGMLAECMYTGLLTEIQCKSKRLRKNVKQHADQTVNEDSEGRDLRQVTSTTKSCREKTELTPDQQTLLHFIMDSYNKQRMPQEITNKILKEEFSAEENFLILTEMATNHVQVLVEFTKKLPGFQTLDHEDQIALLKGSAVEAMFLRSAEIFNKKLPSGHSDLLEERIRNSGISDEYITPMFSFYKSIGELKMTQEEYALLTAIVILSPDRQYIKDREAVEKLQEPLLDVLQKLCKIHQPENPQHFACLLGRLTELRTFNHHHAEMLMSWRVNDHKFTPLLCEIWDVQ
T1 sequence (P19793 1-462 partner): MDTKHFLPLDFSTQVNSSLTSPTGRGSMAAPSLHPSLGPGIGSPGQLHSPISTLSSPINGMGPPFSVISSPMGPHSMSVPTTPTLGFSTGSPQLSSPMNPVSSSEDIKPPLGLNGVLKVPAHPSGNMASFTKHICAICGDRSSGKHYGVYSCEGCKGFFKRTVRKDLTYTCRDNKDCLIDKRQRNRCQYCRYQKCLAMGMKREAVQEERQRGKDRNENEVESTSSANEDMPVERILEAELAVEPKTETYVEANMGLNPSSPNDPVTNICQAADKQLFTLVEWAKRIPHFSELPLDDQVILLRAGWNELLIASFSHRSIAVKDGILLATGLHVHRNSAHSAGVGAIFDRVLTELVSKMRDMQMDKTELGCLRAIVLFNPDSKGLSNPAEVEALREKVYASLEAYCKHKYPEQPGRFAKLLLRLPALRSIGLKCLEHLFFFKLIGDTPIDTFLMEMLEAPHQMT
Put plainly: In Vitro FXR Assay (TK): TK-ECRE-luc reporter in transfected CV-1 cells. It counts as cell-based. The conditions noted are these: CV-1 cells transfected with hFXR, hRXR, 18 h incubation, luminescence. In a few lines: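 Luciferase read-out from lysed CV-1 cells exposed 18 h to DMSO-diluted compounds. Cells had been transfected overnight with expression plasmids for hFXR and hRXR plus TK-ECRE-luc reporter and pCMX-YFP, grown in charcoal-stripped serum at 37 °C, 5% CO2.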

Some results are limits rather than exact numbers.

Consider 17 molecules from US10626081B2, “Farnesoid X receptor agonists and uses thereof” (Metacrine, Inc., priority 2015, dated 2020).

One may read the EC50 as the concentration that produces a half-maximal response. Low readings indicate higher potency in that assay, high ones lower potency in that assay. For `CN(C)c1ccc(-c2ccc(CN(C(=O)C3CCCCC3)c3cccc(/C=C/C(=O)OCC(F)(F)F)c3)cc2)cc1` [86.6, (E)-2,2,2-Trifluoroethyl 3-(3-(N-((4′-(dimethylamino)-[1,1′-biphenyl]-4-yl)methyl)cyclohexanecarboxamido)phenyl) acrylate], the EC50 lay within 1000 to 10000 nM.
To `CN(C)c1ccc(-c2ccc(CN(C(=O)C3CCCCC3)c3cccc(/C=C/C(=O)OCc4ccccc4)c3)cc2)cc1` [86.7, (E)-Benzyl 3-(3-(N-((4′-(dimethylamino)-[1,1′-biphenyl]-4-yl)methyl)cyclohexanecarboxamido)phenyl) acrylate] belongs greater than 10000 nM; to `COC(=O)/C=C/c1cc(OC)cc(N(Cc2ccc(-c3ccc(N(C)C)cc3)cc2)C(=O)C2CCCCC2)c1` [86.8, (E)-Methyl 3-(3-(N-((4′-(dimethylamino)-[1,1′-biphenyl]-4-yl)methyl)cyclohexanecarboxamido)-5-methoxyphenyl)acrylate], 1000 to 10000 nM.
`COC(=O)/C=C/c1cc(C#N)cc(N(Cc2ccc(-c3ccc(N(C)C)cc3)cc2)C(=O)C2CCCCC2)c1` [86.9, (E)-Methyl 3-(3-cyano-5-(N-((4′-(dimethylamino)-[1,1′-biphenyl]-4-yl)methyl)cyclohexanecarboxamido)phenyl) acrylate]: the EC50 was 1000 to 10000 nM.
Take `COC(=O)/C=C/c1cc(Cl)cc(N(Cc2ccc(-c3ccc(N(C)C)cc3)cc2)C(=O)C2CCCCC2)c1` [86.10, (E)-Methyl 3-(3-chloro-5-(N-((4′-(dimethylamino)-[1,1′-biphenyl]-4-yl)methyl)cyclohexanecarboxamido)phenyl) acrylate]: the EC50 is no more than 1000 nM.
In turn, `COC(=O)/C=C/c1cc(N(Cc2ccc(-c3ccc(N(C)C)cc3)cc2)C(=O)C2CCCCC2)cc(C(F)(F)F)c1` [86.11, (E)-Methyl 3-(3-(N-((4′-(dimethylamino)-[1,1′-biphenyl]-4-yl)methyl)cyclohexanecarboxamido)-5-(trifluoromethyl)phenyl)acrylate] registered a concentration giving a half-maximal response (EC50) of 1000 to 10000 nM.
In turn, `COC(=O)/C=C/c1cccc(N(Cc2ccc(-c3ccc(N(C)C)cc3)cc2)C(=O)[C@H]2CC[C@H](NC(C)=O)CC2)c1` [98.1, trans-(E)-Methyl 3-(3-(4-acetamido-N-((4′-(dimethylamino)-[1,1′-biphenyl]-4-yl)methyl)cyclohexanecarboxamido)phenyl)acrylate] displayed an EC50 of no more than 1000 nM.
The figure for `COC(=O)/C=C/c1cccc(N(Cc2ccc(-c3ccc(N(C)C)cc3)cc2)C(=O)[C@H]2CC[C@H](NS(C)(=O)=O)CC2)c1` [98.2, trans-(E)-Methyl 3-(3-(N-((4′-(dimethylamino)-[1,1′-biphenyl]-4-yl)methyl)-4-(methylsulfonamido)cyclohexane-carboxamido)phenyl)acrylate] is no more than 1000 nM; for `COC(=O)/C=C/c1cccc(N(Cc2ccc(-c3ccc(N(C)C)cc3)cc2)C(=O)C2CCC(=O)CC2)c1` [compound 17, (E)-Methyl 3-(3-(N-((4′-(dimethylamino)-[1,1′-biphenyl]-4-yl)methyl)-4-oxocyclohexanecarboxamido)phenyl)acrylate] it is no more than 1000 nM.
The figure for `COC(=O)/C=C/c1cccc(N(Cc2ccc(-c3ccc(N(C)C)cc3)cc2)C(=O)[C@H]2CC[C@H](NC(=O)OC(C)(C)C)CC2)c1` [compound 96, (E)-Methyl 3-(3-(trans-4-((tert-butoxycarbonyl)amino)-N-((4′-(dimethylamino)-[1,1′-biphenyl]-4-yl)methyl)cyclohexanecarboxamido)phenyl) acrylate] is no more than 1000 nM; for `COC(=O)/C=C/c1cccc(N(Cc2ccc(-c3ccc(N(C)C)cc3)cc2)C(=O)[C@H]2CC[C@H](N)CC2)c1` [compound 97, (E)-Methyl 3-(3-(trans-4-amino-N-((4′-(dimethylamino)-[1,1′-biphenyl]-4-yl)methyl)cyclohexanecarboxamido)phenyl) acrylate] it is greater than 10000 nM; for `COC(=O)/C=C/c1cccc(N(Cc2ccc(-c3ccc(N(C)C)cc3)cc2)C(=O)[C@H]2CC[C@H](NC(=O)OC)CC2)c1` [compound 98, (E)-Methyl 3-(3-(trans-N-((4′-(dimethylamino)-[1,1′-biphenyl]-4-yl)methyl)-4-((methoxycarbonyl)amino)cyclo-hexanecarboxamido)phenyl)acrylate] it is no more than 1000 nM.
To `CC(C)=CCc1cccc(N(Cc2ccc(-c3ccc(N(C)C)cc3)cc2)C(=O)C2CCCCC2)c1` [compound 99, N-((4′-(Dimethylamino)-[1,1′-biphenyl]-4-yl)methyl)-N-(3-(3-methylbut-2-en-1-yl)phenyl) cyclohexanecarboxamide] belongs greater than 10000 nM; to `COC(=O)/C=C/c1cccc(N(Cc2ccc(NC(=O)c3ccccc3)cc2)C(=O)C2CCCCC2)c1` [compound 100, (E)-Methyl 3-(3-(N-(4-benzamidobenzyl)cyclohexanecarboxamido)phenyl)acrylate], 1000 to 10000 nM.
As to `COC(=O)/C=C/c1cccc(N(Cc2ccc(N(C)C(=O)c3ccccc3)cc2)C(=O)C2CCCCC2)c1` [compound 101, (E)-Methyl 3-(3-(N-(4-(N-methylbenzamido)benzyl)cyclohexane-carboxamido)phenyl)acrylate], the EC50 is greater than 10000 nM.
To `COC(=O)/C=C/c1cccc(N(Cc2ccc(NCc3ccccc3)cc2)C(=O)C2CCCCC2)c1` [compound 102, (E)-Methyl 3-(3-(N-(4-(benzylamino)benzyl)cyclohexane-carboxamido)phenyl)acrylate] belongs 1000 to 10000 nM.
The figure for `COC(=O)/C=C/c1cccc(N(Cc2ccc(N(C)Cc3ccccc3)cc2)C(=O)C2CCCCC2)c1` [compound 103, (E)-Methyl 3-(3-(N-(4-(benzyl(methyl)amino)benzyl)cyclo-hexanecarboxamido)phenyl)acrylate] is greater than 10000 nM.
